Earlier results as cited in patent US20240000727A1, “STABLE COATED SOLID PHARMACEUTICAL COMPOSITION OF AN OPIOID ANALGESIC AND AN ANTI-EPILEPTIC FOR PAIN” (LABORATORIOS SILANES S.A. DE C.V., priority 2020, published 2024).

System: moderate to severe postoperative pain
Details: intravenous or intramuscular; patients with moderate to severe postoperative pain

In the case of COc1cccc([C@@]2(O)CCCC[C@@H]2CN(C)C)c1 [tramadol, (1R,2R)-2-[(dimethylamino)methyl]-1-(3-methoxyphenyl)cyclohexan-1-ol], the “Potency relative to nalbuphine” value is given as “one-fifth as potent” and the “Potency relative to pethidine (meperidine)” value is given as “equivalent”.
